From patent US5334456A, “Free-radical curable compositions” (priority 1992, dated 1994)
Counter-ions that a name gives are not always drawn. Like-named read-outs stand apart in the source and are kept apart here.

Experiments:
[1] = Inhalation Kill (animals); assay type: in vivo; conditions: Table XVI
Experimental: Toxicity tests were performed on commercially available (meth) acrylate oligomers and diluents and on commercially available vinyl ether and maleate diluents.

[2] = not given; remark: listed apart in the source
[3] = Viscosity (Brookfield viscometer); assay type: physicochemical; conditions: 25° C., product as prepared
Experimental: The viscosity, expressed in pascal seconds (Pa s), was measured using a Brookfield Model RVTD viscometer operated in accordance with the instructions provided therewith. The temperature of each sample tested was 25° C.
The viscosity of the saturated ester oligomers having maleate end groups was determined utilizing a Brookfield RTV viscometer.

SMILES | Inhalation Kill [1] | Skin Irritation (Table XVI, max. = 8) | Eye Irritation ([2]; Table XVI, max. = 10) | Skin Irritation (in vivo) | Eye Irritation ([2]; in vivo) | viscosity [3] | viscosity ([3]; listed as Component 3) [cP]
C=CC(=O)OCCCCCCOC(=O)C=C [1,6-hexanediol diacrylate] | 0 of 6 | 3 | 2 |  |  |  | 
C=CC(=O)OCCO [2-hydroxyethyl acrylate] | 1 of 6 | 6 | 9 |  |  |  | 
C=CC(=O)OCCOc1ccccc1 [2-phenoxyethyl acrylate] | 0 of 6 | 3 | 1 |  |  |  | 
CCOC(=O)/C=C\C(=O)OCC [Diethyl maleate] |  | mild | mild |  |  |  | 
C=CC(=O)OCCOCCOC(=O)C=C [Diethyleneglycol diacrylate] | 0 of 6 | 5 | 9 |  |  |  | 
COC(=O)/C=C\C(=O)OC [Dimethyl maleate] |  |  |  | 5.47 | moderate |  | 
CCCCOC(=O)/C=C\C(=O)OCCCC [Dubutyl maleate] |  | mild |  |  |  |  | 
C=COCCCCOC(=O)/C=C\C(=O)OCC [Example 1, 4-vinyloxybutyl ethyl maleate] |  |  |  |  |  | about 36 cP | 36
C=CC(=O)OCC(C)(C)COC(=O)C=C [Neopentylglycol diacrylate] | 1 of 6 | 5 | 8 |  |  |  | 
C=CC(=O)OCC(CO)(COC(=O)C=C)COC(=O)C=C [Pentaerythritol triacrylate] | 0 of 6 | 2 | 10 |  |  |  | 
